Test results from patent EP0155871A1, “Compounds possessing inhibiting properties in the lignin formation in plants and process for the reduction of their lignin content” (Etablissement Public dit: CENTRE NATIONAL DE LA RECHERCHE …, priority 1984, dated 1985).
Where two headings read alike, the source gives them in different places.

Columns and labels:
Format in all cases: biochemical
CAD de peuplier [1] = target: T1, CAD de peuplier (Populus deltoides, UniProt P31657); test: in vitro inhibition of isolated poplar CAD
T1 construct: la CAD de peuplier isolée selon la méthode deSARNI et al; from tissue
T1 sequence (P31657 1-357): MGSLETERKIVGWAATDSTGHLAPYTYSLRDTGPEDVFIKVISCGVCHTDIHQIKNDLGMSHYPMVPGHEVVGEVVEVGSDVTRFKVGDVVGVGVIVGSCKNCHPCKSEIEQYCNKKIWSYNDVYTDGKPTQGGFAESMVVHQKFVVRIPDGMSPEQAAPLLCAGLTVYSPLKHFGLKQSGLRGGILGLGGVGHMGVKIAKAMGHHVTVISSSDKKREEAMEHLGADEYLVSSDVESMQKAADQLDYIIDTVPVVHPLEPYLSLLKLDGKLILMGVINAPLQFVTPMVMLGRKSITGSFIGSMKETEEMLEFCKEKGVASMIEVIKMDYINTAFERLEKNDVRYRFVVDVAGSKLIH
Text: On rapporte dans le tableau suivant les résultats obtenus concernant l'effet mesuré in vitro d'inhibiteurs selon l'invention à différentes concentrations vis-à-vis de la CAD de peuplier isolée selon la méthode deSARNI et al, dans, EUROP JOURNAL OF BIOCHEMISTRY,139, P.259-265, 1984.
Les mesures des trois derniers résultats ont été réalisées dans le sens physiologique c'est-à-dire en suivant la réduction de l'aldéhyde coniférylique(oxydation du […] mesurée à 340 nm).
Cette inhibition mesurée in vitro dans le sens physiologique (pH 6,5) est 10 à 15 fois plus importante que dans le sens inverse, c'es-t-à-dire alcool→ aldéhyde (pH 8,8).

CAD = target: T2, CAD (Populus deltoides, UniProt P31657); test: reversibility of CAD inhibition by dialysis of the enzyme-inhibitor mixture; settings: 2 mM; dialysis against tampon tris/HCl 0,1 M, pH 7,5, 14 heures, 4°C
T2 construct: from tissue
T2 sequence (P31657 1-357): T1 sequence (P31657 1-357)
Text: L'étude des modalités d'action des inhibiteurs de l'invention montre la réversibilité de leur action.

[2] = tested on: éthanol déshydrogénase (EDH); test: action on plant zinc enzyme EDH
Text: (§1) L'étude de leur action sur différentes enzymes a également été réalisée.
(§2) On a étudié ainsi l'action d'inhibiteurs selon l'invention sur des enzymes du métabolisme phénolique telles que la phénylalanine ammonialyase (PAL), la catéchol O-méthyl transférase (OMT), l'hydroxycinnamate : CoA ligase (HCl) et la cinnamoyl : CoA réductase (CCR), et des enzymes végétales à zinc, telles que l'éthanol déshydrogénase (EDH), la superoxyde dismutase (SOD) et l'anhydrase carbonique (CA).

[3] = tested on: superoxyde dismutase (SOD); test: action on plant zinc enzyme SOD
Text: as §1, §2

[4] = tested on: anhydrase carbonique (CA); test: action on plant zinc enzyme carbonic anhydrase
Text: as §1, §2

[5] = tested on: phénylalanine ammonialyase (PAL); test: action on phenolic metabolism enzyme PAL
Text: as §1, §2

[6] = tested on: cinnamoyl : CoA réductase (CCR); test: action on phenolic metabolism enzyme CCR
Text: as §1, §2

CAD de peuplier [7] = target: T1, CAD de peuplier; test: in vitro inhibition of isolated poplar CAD; settings: 0,250mM; sens physiologique, réduction de l'aldéhyde coniférylique, 340 nm, pH 6,5; read-out: inhibition à 0,250mM
[8] = 2mM, not among the results measured in the physiological direction, read-out: Inhibition % à 2mM

Work on `COc1cc(C=CC(=O)OC(C)(C)C)cc(OC)c1O` [STB, Sinapate de tertiobutyle] yielded an inhibition at 2000 µM (CAD de peuplier [1]; [8]) of 55%.

`COc1cc(C=CC(=O)OC(C)(C)C)ccc1O` [FTB, férulate de tertiobutyle] was tested, and the inhibition at 2000 µM (CAD de peuplier [1]; [8]) was 75%, the inhibition at 2000 µM (CAD de peuplier [1]; text restatement of the table value (2mM), read-out: taux d'inhibition) was ~75% and the “activité de CAD après dialyse” value (CAD) was “restitution totale de l'activité CAD”. The “action sur l'EDH” value [2] was “n'agit pas”, the “action sur la SOD” value [3] was “n'agit pas” and the “action sur l'AC” value [4] was “n'agit pas”. The “action vis à vis de la PAL” value [5] was “actif”, the “action vis à vis de la CCR” value [6] was “actif” and the inhibition at 250 µM (CAD de peuplier [7]) was 100%.

`COc1cc(C=CC(=O)N2CCSC2=S)ccc1O` [FMT] was tested, and the inhibition at 250 µM (CAD de peuplier [7]) was 100%.

`CC(C)(C)OC(=O)C=Cc1ccc(O)cc1` [PCB, p-Coumarate de tertiobutyle] gave an inhibition at 2000 µM (CAD de peuplier [1]; [8]) of 40%.
